Where two headings read alike, the source gives them in different places.
Key:
[1] = Pharmacokinetic study in rats after oral administration of cinobufacini capsule (UPLC-MS/MS of plasma); assay type: in vivo, rat; details: for detection in rat plasma: cinobufacini capsule groups
Procedure: (§1) Male Sprague–Dawley rats (weighing 200–220 g) of SPF grade were offered by Sippr/BK laboratory Animal, Corp., Ltd. (Shanghai, China) and fed in the Laboratory Animal Center of the Shanghai University of Traditional Chinese Medicine. All the rats were kept under environmentally controlled conditions with constant temperature (22–24°C) and humidity (60–65%). The animal experiment program in the present research was approved by the Animal Committee of the Shanghai University of Traditional Chinese Medicine (PZSHUTCM210618012).
(§2) An Agilent 1290 liquid chromatographic system includes a G4220A quaternary pump, a G1326C column incubator, a G4226A automatic sampler, and a G1330B degasser. The column temperature was set to 35°C. A measure of 5 µL of samples were separated in an Agilent SB-C18 column (2.1 mm ×50 mm, 1.8 μm) and eluted at 0.3 ml/min, followed by gradient elution with water (0.1% V/V formic acid) (A) and acetonitrile (B) (0–1 min, 20%–20% B; 1–3.5 min, 20%–80% B; 4–4.1 min, 80%-20% B; 4.1–6 min, 20% B). The total run time was 6 minutes.
(§3) An Agilent 1290 Infinity series UPLC system was combined with an Agilent 6460 series triple quadrupole mass spectrometer (Agilent Technologies, Santa Clara, CA, United States) to quantify all 13 analytes in an ESI-positive ionization mode. Quantitative analysis was performed in an MRM mode. The mass spectrum conditions were as follows: capillary voltage, 4000V; drying gas (N2), gas flow rate: 10 L/min; sprayer, 30 psi; gas temperature 350°C; The delta EMV (+) 200 V; collision gas (N2); dwell time, 25 ms. Agilent’s MassHunter Workstation software was used for data collection, peak area calculation, and quantitative analysis.
(§4) A measure of 50 µL of the plasma sample was mixed with 10 µL of the internal standard solution (345 ng/ml) in a 1.5-ml centrifuge tube and vortexed for 5 min. The samples were extracted by 500 µL of ethyl acetate for 5 min and centrifuged at 4°C for 10 min (18000 rpm). All the supernatants were collected into another 1.5-ml centrifuge tube, dried under a gentle stream of nitrogen at 37°C, and then added with 50 µL of 80% methanol for resolution. The resolution samples were centrifuged at 4°C for 10 min (18000 rpm), and 5 µL supernatant was extracted and injected for analysis.
(§5) Twenty-four male Sprague–Dawley rats (weigh 200–220 g) were divided into four groups with six rats in each group randomly, including three capsule groups at three different doses and one injection group. In the instructions for cinobufacini capsule and injection, the clinical dosage for adults is 2 g per 70 kg orally and 20 ml per 70 kg intravenously, converting to rat doses of 180 mg/kg and 1.8 ml/kg, respectively.
(§6) In the pre-experiments, we compared cinobufacini capsule of 180 mg/kg (one-time clinical dose) and 900 mg/kg (five times of clinical dose) and Cinobufacini injection of 1.8 ml/kg, but concentrations of some compounds in plasma were too low and difficult to be quantified. […] The experimental rats were led to fast the night and were free to get access to water for 12 h before the pharmacokinetic study. After administration, blood samples (approximately 150 μL) of rats were collected via retro-orbital sinus into heparinized centrifuge tubes at 0.05, 0.083, 0.25, 0.5, 0.75, 1, 2, 4, 6, 8, and 10 h. After centrifugation at 5,000 rpm for 10 min, the plasma was transferred to 1.5-ml polypropylene tubes and stored at −80°C until UPLC-MS/MS analysis.
(§7) GraphPad Prism software (version 8.0.2) was used to draw the mean plasma concentration–time curves of all analytes. The pharmacokinetic parameters were calculated by DAS 3.2.8 software. Meanwhile, the pharmacokinetic data on rats were presented as mean ± standard deviation (SD). Differences of pharmacokinetic parameters between groups were analyzed by the t-test using SPSS software (version 26.0). Differences were considered significant statistically when the p-values were <0.05 and very significant statistically when the p-values were <0.01.

[2] = Pharmacokinetic study in rats after intravenous administration of cinobufacini injection (UPLC-MS/MS of plasma); assay type: in vivo, rat; details: cinobufacini injection group, intravenous
Procedure: as §1, §2, §3, §4, §5, §6, §7

[3] = Stability of analytes in rat plasma QC samples under storage conditions; assay type: physicochemical; details: n = 6; for Stability during 24 h at 4°C, RE: post-treatment storage in autosampler; for −80°C for 30 days, RE / Three freeze–thaw cycles, RE: rat plasma; for −80°C for 30 days, RE: long-term; for Three freeze–thaw cycles, RE: −80°C to room temperature
Procedure: The stability of QC samples in six replicates at three concentrations (low, medium, and high levels) was analyzed under different storage conditions: the post-treatment stability was analyzed after storage in an autosampler (4°C) for 24 h. Freeze–thaw stability was investigated after three freeze–thaw cycles (−80°C to room temperature as one cycle). Long-term stability was assessed by analyzing QC samples kept at −80°C for 30 days. The concentrations of the analytes in the plasma samples and the QC samples were calculated by the calibration standard curve prepared each day. The stabilities of analytes were acceptable when the accuracy (RE, %) and precision (RSD, %) of all QC samples in all storage conditions were within ±15% compared to nominal concentrations.

[4] = parameters: method as in Huang et al., 2015; details: after administration of Shexiang Baoxin pill; ref Huang et al., 2015; cited from earlier work
[5] = parameters: method as in Wang et al., 2014; details: administration dose 1.11 mg/kg; ref Wang et al., 2014; cited from earlier work
[6] = high QC level (249.58–250.28 ng/ml)
[7] = medium QC level (49.92–50.06 ng/ml)

CC(=O)O[C@H]1C[C@]2(O)[C@@H]3CC[C@@H]4C[C@@H](O)CC[C@]4(C)[C@H]3CC[C@]2(C)[C@H]1c1ccc(=O)oc1 [BL, bufotalin]
detection in rat plasma [1]: could not be detected | concentration in plasma ([1]; present study): too low to calculate the pharmacokinetics parameters accurately | detection in rat plasma [2]: could not be detected | Stability during 24 h at 4°C, RE [3, 6]: 5.7% | Stability during 24 h at 4°C, RE ([3]; low QC level (4.99–5.00 ng/ml)): 11.4% | Stability during 24 h at 4°C, RE [3, 7]: 5.0% | −80°C for 30 days, RE [3, 6]: 6.0% | −80°C for 30 days, RE ([3]; low QC level (4.99–5.00 ng/ml)): 2.3% | −80°C for 30 days, RE [3, 7]: 2.1% | Three freeze–thaw cycles, RE [3, 6]: 7.1% | Three freeze–thaw cycles, RE ([3]; low QC level (4.99–5.00 ng/ml)): 3.4% | Three freeze–thaw cycles, RE [3, 7]: 3.1% | concentration in plasma [4]: lower than 4.4 ng/ml

CC(=O)O[C@H]1[C@H]2O[C@]23[C@@H]2CC[C@@H]4C[C@@H](O)CC[C@]4(C)[C@H]2CC[C@]3(C)[C@H]1c1ccc(=O)oc1 [CBG, cinobufagin]
Cmax [5]: 4.49 ng/mL | detection in rat plasma [1]: could not be detected | detection in rat plasma [2]: could not be detected | Stability during 24 h at 4°C, RE [3, 6]: 0.6% | Stability during 24 h at 4°C, RE ([3]; low QC level (4.99–5.00 ng/ml)): 4.8% | Stability during 24 h at 4°C, RE [3, 7]: −3.2% | −80°C for 30 days, RE [3, 6]: 2.3% | −80°C for 30 days, RE ([3]; low QC level (4.99–5.00 ng/ml)): 3.7% | −80°C for 30 days, RE [3, 7]: −1.0% | Three freeze–thaw cycles, RE [3, 6]: 3.4% | Three freeze–thaw cycles, RE ([3]; low QC level (4.99–5.00 ng/ml)): 4.8% | Three freeze–thaw cycles, RE [3, 7]: 0.0% | detection in plasma [4]: not detected

CC(=O)O[C@H]1[C@H]2O[C@]23[C@@H]2CC[C@]4(O)C[C@@H](O)CC[C@]4(C)[C@H]2CC[C@]3(C)[C@H]1c1ccc(=O)oc1 [CBT, cinobufotalin]
detection in rat plasma [1]: could not be detected | detection in rat plasma [2]: could not be detected | Stability during 24 h at 4°C, RE [3, 6]: 4.8% | Stability during 24 h at 4°C, RE ([3]; low QC level (4.99–5.00 ng/ml)): 9.8% | Stability during 24 h at 4°C, RE [3, 7]: 7.7% | −80°C for 30 days, RE [3, 6]: −8.7% | −80°C for 30 days, RE ([3]; low QC level (4.99–5.00 ng/ml)): −0.3% | −80°C for 30 days, RE [3, 7]: 4.1% | Three freeze–thaw cycles, RE [3, 6]: 12.0% | Three freeze–thaw cycles, RE ([3]; low QC level (4.99–5.00 ng/ml)): 4.3% | Three freeze–thaw cycles, RE [3, 7]: 13.2%

C[C@]12CC[C@H](O)C[C@H]1CC[C@@H]1[C@@H]2CC[C@]2(C)[C@@H](c3ccc(=O)oc3)C[C@H]3O[C@]132 [RBG, resibufogenin]
detection in rat plasma [1]: could not be detected | detection in rat plasma [2]: could not be detected | Stability during 24 h at 4°C, RE [3, 6]: −3.3% | Stability during 24 h at 4°C, RE ([3]; low QC level (4.99–5.00 ng/ml)): −6.4% | Stability during 24 h at 4°C, RE [3, 7]: 3.5% | −80°C for 30 days, RE [3, 6]: −2.8% | −80°C for 30 days, RE ([3]; low QC level (4.99–5.00 ng/ml)): −1.3% | −80°C for 30 days, RE [3, 7]: 2.3% | Three freeze–thaw cycles, RE [3, 6]: −1.9% | Three freeze–thaw cycles, RE ([3]; low QC level (4.99–5.00 ng/ml)): −0.3% | Three freeze–thaw cycles, RE [3, 7]: 3.3%
